Calls of active or inactive are those of the source. The rule behind the calls is not given here.
What was measured:
Plasmodium yoelii [1] = test: In vivo antiplasmodial activity against asexual blood-stage (ABS) Plasmodium yoelii MRA-428 infected in 4-day suppression CF1 mouse model assessed as reduction in parasitemia by measuring cured mouse at 100 mg/kg, po single dose treated 24 hrs post infection; assay type: functional, organism-based
Plasmodium yoelii [2] = test: In vivo antiplasmodial activity against asexual blood-stage (ABS) Plasmodium yoelii MRA-428 infected in 4-day suppression CF1 mouse model assessed as reduction in parasitemia treated 24 hrs post infection daily measured on day 4; assay type: functional
[3] = (§1) Selectivity index, ratio of CC50 for Macaca mulatta hepatocytes to IC50 for antiplasmodial activity against schizont Plasmodium cynomolgi B strain infected in Macaca mulatta hepatocytes incubated with sporozoite containing salivary gland homogenate obtained from dissected Anopheles dirus mosquitoes (infected with Plasmodium cynomolgi B strain) treatment started on day 4 post infection and continued daily for 4 days into fresh changed media until day 8 assessed as Liver stage (LS) activity by measuring radical cure mode by immunofluorescent staining analysis; assay type: toxicity, cell-based; settings: rhesus monkey, read-out: Selectivity Index
[4] = as §1, with “hypnozoite” for “schizont”, “prophylactic” for “radical cure”; assay type: toxicity, cell-based; settings: rhesus monkey, read-out: Selectivity Index
[5] = human, microsomes, 1 h
[6] = as §1, with “hypnozoite” for “schizont”; assay type: toxicity, cell-based; settings: rhesus monkey, read-out: Selectivity Index
Plasmodium cynomolgi [7] = test: as §1, with “Antiplasmodial” for “Selectivity index, ratio of CC50 for Macaca mulatta hepatocytes to IC50 for antiplasmodial”, “prophylactic” for “radical cure”; assay type: functional, organism-based; settings: Hepatocyte
Plasmodium falciparum [8] = test: Antiplasmodial activity against asexual blood-stage (ABS) CQ-sensitive Plasmodium falciparum D6 infected in human erythrocytes assessed as reduction in fluorescence measured after 72 hrs by Malaria SYBR Green I-based Fluorescence (MSF) assay; assay type: functional, organism-based; settings: D6, Erythrocyte
HepG2 = test: Cytotoxicity against human HepG2 cells assessed as cell viability measured after 48 hrs by MTT assay; assay type: functional, cell-based; settings: HepG2, 48 h
[9] = mouse, microsomes, 1 h
Plasmodium falciparum [10] = test: Antiplasmodial activity against asexual blood-stage (ABS) ATV-resistant clinical isolate Plasmodium falciparum Tm90-C2B infected in human erythrocytes assessed as reduction in fluorescence measured after 72 hrs by Malaria SYBR Green I-based Fluorescence (MSF) assay; assay type: functional, organism-based; settings: Erythrocyte
[11] = as §1, with “prophylactic” for “radical cure”; assay type: toxicity, cell-based; settings: rhesus monkey, read-out: Selectivity Index
[12] = Toxicity in CF1 mouse infected with asexual blood-stage (ABS) Plasmodium yoelii MRA-428 assessed as behavioural change at 0.3 to 30 mg/kg, po treated 24 hrs post infection measured after 4 days; assay type: organism-based; settings: in vivo, dose 0.3-30 mg/kg
Plasmodium cynomolgi [13] = test: as §1, with “Antiplasmodial” for “Selectivity index, ratio of CC50 for Macaca mulatta hepatocytes to IC50 for antiplasmodial”, “hypnozoite” for “schizont”; assay type: functional, organism-based; settings: Hepatocyte
Plasmodium yoelii [14] = test: In vivo antiplasmodial activity against asexual blood-stage (ABS) Plasmodium yoelii MRA-428 infected in 4-day suppression CF1 mouse model assessed as reduction in parasitemia by measuring protection at 10 mg/kg, po treated 24 hrs post infection daily for 4 days relative to control; assay type: functional; set-up: scale not given: the % may be the effect or the level left
Plasmodium yoelii [15] = test: In vivo antiplasmodial activity against asexual blood-stage (ABS) Plasmodium yoelii MRA-428 infected in 4-day suppression CF1 mouse model assessed as reduction in parasitemia by measuring cured mouse at 60 mg/kg, po single dose treated 24 hrs post infection; assay type: functional, organism-based
Plasmodium falciparum [16] = test: Antiplasmodial activity against asexual blood-stage (ABS) MDR Plasmodium falciparum Dd2 infected in human erythrocytes assessed as reduction in fluorescence measured after 72 hrs by Malaria SYBR Green I-based Fluorescence (MSF) assay; assay type: functional, organism-based; settings: Dd2, Erythrocyte
Plasmodium cynomolgi [17] = test: as §1, with “Antiplasmodial” for “Selectivity index, ratio of CC50 for Macaca mulatta hepatocytes to IC50 for antiplasmodial”; assay type: functional, organism-based; settings: Hepatocyte
Plasmodium cynomolgi [18] = test: as §1, with “Antiplasmodial” for “Selectivity index, ratio of CC50 for Macaca mulatta hepatocytes to IC50 for antiplasmodial”, “hypnozoite” for “schizont”, “prophylactic” for “radical cure”; assay type: functional, organism-based; settings: Hepatocyte
Hepatocyte = test: Cytotoxicity against Macaca mulatta hepatocytes assessed as cell viability measured after 48 hrs by MTT assay; assay type: toxicity, cell-based; settings: rhesus monkey, 48 h
[19] = Toxicity in CF1 mouse infected with asexual blood-stage (ABS) Plasmodium yoelii MRA-428 assessed as clinical toxicity at 0.3 to 30 mg/kg, po treated 24 hrs post infection measured after 4 days; assay type: organism-based; settings: in vivo, dose 0.3-30 mg/kg
[20] = Toxicity in CF1 mouse infected with asexual blood-stage (ABS) Plasmodium yoelii MRA-428 assessed as hyperactivity at 0.3 to 30 mg/kg, po treated 24 hrs post infection measured after 4 days; assay type: organism-based; settings: in vivo, 96 h, dose 0.3-30 mg/kg, time 4 day
[21] = Toxicity in CF1 mouse infected with asexual blood-stage (ABS) Plasmodium yoelii MRA-428 assessed as ruffled hair at 0.3 to 30 mg/kg, po treated 24 hrs post infection measured after 4 days; assay type: organism-based; settings: in vivo, 96 h, dose 0.3-30 mg/kg, time 4 day
[22] = Toxicity in CF1 mouse infected with asexual blood-stage (ABS) Plasmodium yoelii MRA-428 assessed as lethargy at 0.3 to 30 mg/kg, po treated 24 hrs post infection measured after 4 days; assay type: organism-based; settings: in vivo, 96 h, dose 0.3-30 mg/kg, time 4 day
Plasmodium berghei [23] = test: In vivo antiplasmodial activity against luciferase expressing liver stage Plasmodium berghei ANKA MRA-868 sporozoites infected in Albino C57BL/6 mouse model assessed as blood stage infection at 40 mg/kg, po daily measured 72 hrs; assay type: functional, organism-based
[24] = Toxicity in CF1 mouse infected with asexual blood-stage (ABS) Plasmodium yoelii MRA-428 assessed as weight loss at 0.3 to 30 mg/kg, po treated 24 hrs post infection measured after 4 days; assay type: organism-based; settings: in vivo, 96 h, dose 0.3-30 mg/kg, time 4 day
[25] = Toxicity in CF1 mouse infected with asexual blood-stage (ABS) Plasmodium yoelii MRA-428 assessed as hunching at 0.3 to 30 mg/kg, po treated 24 hrs post infection measured after 4 days; assay type: organism-based; settings: in vivo, 96 h, dose 0.3-30 mg/kg, time 4 day
Plasmodium yoelii [26] = test: In vivo antiplasmodial activity against asexual blood-stage (ABS) Plasmodium yoelii MRA-428 infected in 4-day suppression CF1 mouse model assessed as reduction in parasitemia by measuring cured mouse at 80 mg/kg, po treated 24 hrs post infection daily for 4 days; assay type: functional, organism-based
Plasmodium berghei [27] = test: In vivo antiplasmodial activity against luciferase expressing liver stage Plasmodium berghei ANKA MRA-868 sporozoites infected in Albino C57BL/6 mouse model assessed as protection at 10 mg/kg, po daily measured 24 to 72 hrs by real-time In Vivo Imaging System (IVIS); assay type: functional; settings: time lower 24.0 hrs, time upper […]

Structure (SMILES) | ED50 (Plasmodium yoelii [2]) [mg/kg] | ED90 (Plasmodium yoelii [2]) [mg/kg] | selectivity ratio at 96 h [3] | selectivity ratio at 96 h [4] | selectivity ratio at 96 h [6] | IC50 (Plasmodium cynomolgi [7]) [nM] | IC50 (Plasmodium falciparum [8]) [nM] | IC50 (HepG2) [nM] | CLH [9] [µL/min/mg] | IC50 (Plasmodium falciparum [10]) [nM] | selectivity ratio at 96 h [11] | Activity [12] | IC50 (Plasmodium cynomolgi [13]) [nM] | IC50 (Plasmodium falciparum [16]) [nM] | IC50 (Plasmodium cynomolgi [17]) [nM] | IC50 (Plasmodium cynomolgi [18]) [nM] | CC50 (Hepatocyte) [nM] | Activity [19] | Activity [20] | Activity [21] | further results
O=c1c2ccc(Oc3ccc(OC(F)(F)F)cc3)cc2[nH]c2ccc(F)c(Cl)c12 | 0.29 | 0.33 | 2.57 | 16.7 | 1.31 | 80 | 1.03 | > 200000 | 11.6 | 52.8 | 111 | Non-toxic | 6750 | 0.84 | 3450 | 530 | 8870 | Non-toxic |  |  | Activity (Plasmodium yoelii [1]): Active; t1/2 [5]: > 1 h; Activity (Plasmodium yoelii [14]): 100%; Activity (Plasmodium yoelii [15]): Active
CCCCCCOc1ccc2c(=O)c3c([nH]c2c1)CCCC3 |  |  |  |  |  | 2820 | 0.477 | > 200000 | 37.6 | 5.11 | > 7.09 |  | > 20000 | 2.73 | > 20000 | > 20000 | > 20000 |  | Non-toxic | Non-toxic | Activity [22]: Non-toxic; Activity (Plasmodium berghei [23]): Active; Out Of 5 - 5 Mouse Cured; Activity [24]: Non-toxic; Activity [25]: Non-toxic
O=c1c2cc(Oc3ccc(OC(F)(F)F)cc3)ccc2[nH]c2cc(Cl)cc(F)c12 |  | 1.98 |  | > 60.6 |  | 30 | 4.18 | > 200000 | 45.4 | 599 | > 667 | Non-toxic | > 20000 | 4.27 | > 20000 | 330 | > 20000 | Non-toxic |  |  | Activity (Plasmodium yoelii [26]): Active
COc1cc(C)c2c(Oc3cccc(C(F)(F)F)c3)c(OC)cc(NC(C)CCCN)c2n1 (stereo unspecified) [TAFENOQUINE] |  |  | 2.79 | 89.4 | 1.95 | 40 |  |  |  |  | 380 |  | 7810 |  | 5440 | 170 | 15200 |  |  |  | Activity (Plasmodium berghei [27]): Not active; Out Of 5 - 0 Mouse Cured
O=c1c2c([nH]c3ccc(Oc4ccc(OC(F)(F)F)cc4)cc13)CCCC2 | 1.8 | 7.8 |  | > 5.25 |  | 500 | 7.55 | > 200000 | 56.8 | 29.9 | > 40 | Non-toxic | > 20000 | 13.3 | > 20000 | 3810 | > 20000 | Non-toxic | Non-toxic | Non-toxic | Activity [22]: Non-toxic; Activity [24]: Non-toxic; Activity [25]: Non-toxic

Source: ChEMBL document CHEMBL6134844, “Development of Next-Generation Antimalarial Acridones with Radical Cure Potential” (J Med Chem, 2025)
